This is an account of results in patent US20110092509A1, “Pharmaceutical Composition for Prevention or Treatment of Disease Associated with Tear Reduction” (Kissei Pharmaceutical, Co. Ltd., priority 2007, published 2011).

Where a name gives a salt, the structure may show the parent alone.

Common to all, as to type: in vivo, rabbit
For test [1], the system named is Japanese white rabbits. As to the kind of experiment: Measurement of quantity of tear secretion in rabbits (filter paper weight, ocular instillation). The conditions noted are these: for Tear secretion: change before vs 5 min after instillation of 50 μL of 0.1 w/v % solution (phosphate buffer, pH7.4) to both eyes, anesthetized male rabbits, 5 min measurement, mean. On the procedure:
(§1) Three male Japanese white rabbits (about 3 kg) were allocated to each group. Each 50 μL of ½ sulfate salt of Compound 1 (0.1% phosphate buffer solution, pH7.4), terbutaline sulfate (0.1% phosphate buffer solution, pH7.4) or a solvent thereof (a phosphate buffer, pH7.4) was administered to both eyes of the rabbit which was anesthetized with pentobarbital (40 mg/kg, i.v.). Two pieces each of pre-weighed filter paper (Wattman No. 41, 0.22 μm thick, 2.5×15 mm) were inserted to the lower conjunctival sac of the right or left eye, and the difference in weight of the filter papers before and after insertion (post-insertion weight−pre-insertion weight) was defined as the quantity of tear secretion. The quantity of tear secretion was measured for 5 min before drug administration and for 5 min at 5 min after drug administration. Fifty (50) μL of a local anesthetic agent, 0.4% oxybuprocaine hydrochloride (Santen Co.), was instilled into eyes 5 min before each measurement. Tear and the instilled local anesthetic were wiped immediately before the filter paper was inserted.
(§2) Filter papers recovered after each measurement were placed into tubes. A phosphate buffer (pH 7.4) (500 μL) was added to each of the tubes, and they were mixed by vortex mixer for 30 sec. After the filter papers were removed and the mixture was centrifuged at 470×g for 5 min, protein concentrations in supernatant were measured using Micro BCA Protein Assay Reagent Kit (Pierce Co.). The quantity of protein in tear was calculated based on the measured protein concentration and quantity of tear secretion. The difference in the quantity of tear secretion before administration of a solvent, ½ sulfate of Compound 1 or terbutaline sulfate and that after administration was defined as a change in the quantity of tear secretion or protein in tear, respectively. Each milligram of the change in the quantity of tear was taken as 1 μL.

Test [2] concerns PAS positive goblet cells. Put plainly: Mucin secretion from conjunctiva in rabbits: count of PAS positive goblet cells by impression cytology. The conditions noted are these: 0.1 w/v % instilled; for Count of PAS-positive goblet cells: percentage of the solvent group, decrease indicates facilitated mucin secretion from conjunctiva, mean. Here is the method:
In addition, at the same timing of measurement of the quantity of tear secretion, 3 mm diameter cellulose acetate filter paper was pressed on the conjunctiva for 30 sec. by impression cytology method, and periodic acid/Schiff (PAS) staining was performed with the recovered filter papers. After filter papers were cleared and embedded, the number of PAS positive goblet cells existing in a certain visual field of a microscope was counted.
Decreases in the count of PAS positive goblet cells indicate that mucin secretion from the conjunctiva is facilitated. Each value is mean of 4 animals, and ½ sulfate of Compound 1 increased extremely about 30% more in the quantity of tear secretion, about 200% more the quantity of protein in tear and about 50% more mucin secretion from conjunctiva in comparison with the solvent and terbutaline sulfate.

The test system of test [3] is Japanese white rabbits. Put plainly: Measurement of quantity of protein in tear in rabbits (Micro BCA Protein Assay). The conditions noted are these: for Change in protein in tear: change before vs after instillation of 50 μL of 0.1 w/v % solution to both eyes, anesthetized male rabbits, mean. On the procedure: as §1, §2
The mark [4] stands for this setting: 0.1 w/v % instilled, rabbits, '% more'.

With `CN(C)C(=O)COc1ccc2c(c1)C[C@@H](NC[C@H](O)c1ccc(O)cc1)CC2` [½ sulfate of Compound 1, 2-[(2S)-2-[[(2R)-2-hydroxy-2-(4-hydroxyphenyl)ethyl]-amino]-1,2,3,4-tetrahydronaphthalen-7-yloxy]-N,N-dimethyl-acetamide], in the test with Japanese white rabbits [1] (setting [4]), the “Increase in quantity of tear secretion in comparison with the solvent and terbutaline sulfate” value is on record as “about 30%”. In the test with Japanese white rabbits [1], this compound registered a Tear secretion of 4.87 µL. In test [2] (rabbits, '% more'), the “Increase in mucin secretion from conjunctiva in comparison with the solvent and terbutaline sulfate” value is “about 50%”. Also, in test [2], the “Count of PAS-positive goblet cells” value was 64.8%. The “Increase in quantity of protein in tear in comparison with the solvent and terbutaline sulfate” value with Japanese white rabbits [3] (setting [4]) is given as “about 200%”. Also, in the test with Japanese white rabbits [3], the “Change in protein in tear” value came out at 2.57 µg.

As for `C[C@H](Cc1ccc2c(c1)OC[C@H](C(=O)O)O2)NC[C@H](O)c1cccc(Cl)c1` [Compound N-5984, 6-[2-(R)-[[2-(R)-(3-chlorophenyl)-2-hydroxyethyl]amino]propyl]-2,3-dihydro-1,4-benzodioxine-2-(R)-carboxylic acid], in the test with Japanese white rabbits [1] (0.1 w/v % instilled, rabbits), the “Effect on quantity of tear secretion (in words)” value is on record as “extremely increased”. In the test on Japanese white rabbits [1], this compound had a Tear secretion of 4.42 µL. Further, the “Effect on mucin secretion from conjunctiva (in words)” value in test [2] (rabbits) was “extremely increased”. In addition, in test [2], the “Count of PAS-positive goblet cells” value came to 57.1%. Moreover, in the test on Japanese white rabbits [3] (0.1 w/v % instilled, rabbits), the “Effect on quantity of protein in tear (in words)” value is listed as “extremely increased”. In addition, the “Change in protein in tear” value with Japanese white rabbits [3] worked out at 2.72 µg.

On to `CC(C)(C)NCC(O)c1cc(O)cc(O)c1` (stereo not drawn) [Terbutaline sulfate, reference compound], for which the Tear secretion with Japanese white rabbits [1] worked out at 3.80 µL. In test [2], the “Count of PAS-positive goblet cells” value worked out at 77.3%. The “Change in protein in tear” value with Japanese white rabbits [3] stood at 1.04 µg.
